In patent US8163793B2, “Proline derivatives” (Hoffman-La Roche Inc., priority 2009, dated 2012):

How the values were obtained:
Cathepsin S = Cathepsin S (UniProt P25774); assay: Cathepsin enzyme inhibition assay (fluorogenic peptide substrate Z-Val-Val-Arg-AMC), Cathepsin S; assay type: biochemical, human and mouse; details: enzyme 1 nM, substrate 20 μM, pH 6.5; read-out: CatS IC50
Method in brief: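 Compounds were combined with 1 nM human or mouse enzyme, and substrate then started the reaction. The buffer was potassium phosphate (100 mM, pH 6.5) containing EDTA-Na 5 mM, Triton X-100 0.001% and […] 5 mM.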

Cat L = Cat L (UniProt P07711); assay: Cathepsin enzyme inhibition assay (fluorogenic peptide substrate Z-Val-Val-Arg-AMC), Cathepsin L; assay type: biochemical, human and mouse; details: for IC50: enzyme 1 nM, substrate 20 μM, pH 6.5, read-out: CatL IC50; for CatL, % @25 uM: @25 uM compound
Method in brief: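 Fluorogenic cleavage of Z-Val-Val-Arg-AMC (20 μM) by 1 nM Cat L was monitored at ex 360/em 465 nm for 20 min, the linear phase. The buffer was 100 mM potassium phosphate pH 6.5 with 5 mM EDTA and DTT. IC50 values were derived by standard methods, in μM.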

IC50 (Cathepsin S) | IC50 (Cat L) | CatL, % @25 uM (Cat L) | SMILES
34000 nM | 530 nM | – | N#CC1(NC(=O)[C@@H]2C[C@@H](S(=O)(=O)c3ccccc3)CN2C(=O)C2(c3ccc(Cl)cc3)CC2)CC1 [Example 457, (2S,4R)-1-(1-(4-chlorophenyl)cyclopropanecarbonyl)-N-(1-cyanocyclopropyl)-4-(phenylsulfonyl)pyrrolidine-2-carboxamide]
0.505 nM | 6.5 nM | – | N#CC1(NC(=O)[C@@H]2C[C@@H](S(=O)(=O)c3ccccc3Cl)CN2C(=O)C2(c3ccc(I)cc3)CC2)CC1 [Example 459, (2S,4R)-4-(2-Chloro-benzenesulfonyl)-1-[1-(4-iodo-phenyl)-cyclopropanecarbonyl]-pyrrolidine-2-carboxylic acid (1-cyano-cyclopropyl)-amide]
5.85 nM | 52.5 nM | – | COc1cc(C2(C(=O)N3C[C@H](S(=O)(=O)c4ccccc4Cl)C[C@H]3C(=O)NC3(C#N)CC3)CC2)c(Cl)cc1Cl [Example 460, (2S,4R)-4-(2-Chloro-benzenesulfonyl)-1-[1-(2,4-dichloro-5-methoxy-phenyl)-cyclopropanecarbonyl]-pyrrolidine-2-carboxylic acid (1-cyano-cyclopropyl)-amide]
0.985 nM | 22.5 nM | – | N#CC1(NC(=O)[C@@H]2C[C@@H](S(=O)(=O)c3ccccc3Cl)CN2C(=O)C2(c3cc(F)c(Cl)cc3Cl)CC2)CC1 [Example 461, (2S,4R)-4-(2-Chloro-benzenesulfonyl)-1-[1-(2,4-dichloro-5-fluoro-phenyl)-cyclopropanecarbonyl]-pyrrolidine-2-carboxylic acid (1-cyano-cyclopropyl)-amide]
9490 nM | > 25000 nM | – | Cc1cc(N2C[C@H](S(C)(=O)=O)C[C@H]2C(=O)NC2(C#N)CC2)n(-c2ccc(C(F)(F)F)cc2)n1 [Example 462, (2S,4R)-4-Methanesulfonyl-1-[5-methyl-2-(4-trifluoromethyl-phenyl)-2H-pyrazol-3-yl]-pyrrolidine-2-carboxylic acid (1-cyano-cyclopropyl)-amide]
5130 nM | > 25000 nM | – | Cc1cc(N2C[C@H](S(C)(=O)=O)C[C@H]2C(=O)NC2(C#N)CC2)n(-c2ccnc(Cl)c2)n1 [Example 463, (2S,4R)-1-[2-(2-Chloro-pyridin-4-yl)-5-methyl-2H-pyrazol-3-yl]-4-methanesulfonyl-pyrrolidine-2-carboxylic acid (1-cyano-cyclopropyl)-amide]
1.15 nM | 3020 nM | – | Cc1cc(N2C[C@H](S(=O)(=O)c3ccc(N4CC(F)(F)C4)cc3Cl)C[C@H]2C(=O)NC2(C#N)CC2)n(C2CCOCC2)n1 [Example 464, (2S,4R)-4-(2-chloro-4-(3,3-difluoroazetidin-1-yl)phenylsulfonyl)-N-(1-cyanocyclopropyl)-1-(3-methyl-1-(tetrahydro-2H-pyran-4-yl)-1H-pyrazol-5-yl)pyrrolidine-2-carboxamide]
3.05 nM | 2740 nM | – | Cc1cc(N2C[C@H](S(=O)(=O)c3ccccc3Cl)C[C@H]2C(=O)NC2(C#N)CC2)n(C2CCSCC2)n1 [Example 465, (2S,4R)-4-(2-chlorophenylsulfonyl)-N-(1-cyanocyclopropyl)-1-(3-methyl-1-(tetrahydro-2H-thiopyran-4-yl)-1H-pyrazol-5-yl)pyrrolidine-2-carboxamide]
8600 nM | – | 95% @25 uM | Cc1cc(N2C[C@H](S(C)(=O)=O)C[C@H]2C(=O)NC2(C#N)CC2)n(CC(F)(F)F)n1 [Example 466, (2S,4R)-4-Methanesulfonyl-1-[5-methyl-2-(2,2,2-trifluoro-ethyl)-2H-pyrazol-3-yl]-pyrrolidine-2-carboxylic acid (1-cyano-cyclopropyl)-amide]
2080 nM | – | 95% @25 uM | Cc1cc(N2C[C@H](S(=O)(=O)CC3CC3)C[C@H]2C(=O)NC2(C#N)CC2)n(CC(F)(F)F)n1 [Example 467, (2S,4R)-4-Cyclopropylmethanesulfonyl-1-[5-methyl-2-(2,2,2-trifluoro-ethyl)-2H-pyrazol-3-yl]-pyrrolidine-2-carboxylic acid (1-cyano-cyclopropyl)-amide]
840 nM | – | 97% @25 uM | Cc1cc(N2C[C@H](S(=O)(=O)CC3CC3)C[C@H]2C(=O)NC2(C#N)CC2)n(-c2ccc(C(F)(F)F)cc2)n1 [Example 469, (2S,4R)-4-Cyclopropylmethanesulfonyl-1-[5-methyl-2-(4-trifluoromethyl-phenyl)-2H-pyrazol-3-yl]-pyrrolidine-2-carboxylic acid (1-cyano-cyclopropyl)-amide]
2790 nM | – | 94% @25 uM | Cc1cc(N2C[C@H](S(=O)(=O)CC3CC3)C[C@H]2C(=O)NC2(C#N)CC2)n(CCc2ccccc2)n1 [Example 470, (2S,4R)-4-Cyclopropylmethanesulfonyl-1-(5-methyl-2-phenethyl-2H-pyrazol-3-yl)-pyrrolidine-2-carboxylic acid (1-cyano-cyclopropyl)-amide]
70 nM | 4410 nM | – | N#CC1(NC(=O)[C@@H]2C[C@@H](S(=O)(=O)c3ccccc3Cl)CN2C(=O)C2(Oc3ccc(Cl)cc3)CC2)CC1 [Example 473, (2S,4R)-4-(2-Chloro-benzenesulfonyl)-1-[1-(4-chloro-phenoxy)-cyclopropanecarbonyl]-pyrrolidine-2-carboxylic acid (1-cyano-cyclopropyl)-amide]
2.4 nM | 1540 nM | – | Cc1cc(N2C[C@H](S(=O)(=O)c3ccccc3Cl)C[C@H]2C(=O)NC2(C#N)CC2)n(CCCc2ccccc2)n1 [Example 474, (2S,4R)-4-(2-Chloro-benzenesulfonyl)-1-[5-methyl-2-(3-phenyl-propyl)-2H-pyrazol-3-yl]-pyrrolidine-2-carboxylic acid (1-cyano-cyclopropyl)-amide]
6.6 nM | 4760 nM | – | Cc1cc(N2C[C@H](S(=O)(=O)c3ccccc3Cl)C[C@H]2C(=O)NC2(C#N)CC2)n(Cc2cncn2C)n1 [Example 476, (2S,4R)-4-(2-Chloro-benzenesulfonyl)-1-[5-methyl-2-(3-methyl-3H-imidazol-4-ylmethyl)-2H-pyrazol-3-yl]-pyrrolidine-2-carboxylic acid (1-cyano-cyclopropyl)-amide]
0.6 nM | 318 nM | – | Cc1cc(N2C[C@H](S(=O)(=O)c3ccccc3Cl)C[C@H]2C(=O)NC2(C#N)CC2)n(C2CCCCC2)n1 [Example 477, (2S,4R)-4-(2-Chloro-benzenesulfonyl)-1-(2-cyclohexyl-5-methyl-2H-pyrazol-3-yl)-pyrrolidine-2-carboxylic acid (1-cyano-cyclopropyl)-amide]
3.1 nM | 3670 nM | – | Cc1cc(N2C[C@H](S(=O)(=O)c3ccccc3Cl)C[C@H]2C(=O)NC2(C#N)CC2)n(C2CCOCC2)n1 [Example 478, (2S,4R)-4-(2-Chloro-benzenesulfonyl)-1-[5-methyl-2-(tetrahydro-pyran-4-yl)-2H-pyrazol-3-yl]-pyrrolidine-2-carboxylic acid (1-cyano-cyclopropyl)-amide]
3.24 nM | 3070 nM | – | Cc1cc(N2C[C@H](S(=O)(=O)c3ccccc3Cl)C[C@H]2C(=O)NC2(C#N)CC2)n(C2CCS(=O)(=O)CC2)n1 [Example 479, (2S,4R)-4-[(2-Chlorophenyl)sulfonyl]-N-(1-cyanocyclopropyl)-1-[1-(1,1-dioxidotetrahydro-2H-thiopyran-4-yl)-3-methyl-1H-pyrazol-5-yl]-L-prolinamide]
1.05 nM | 5360 nM | – | Cc1cc(N2C[C@H](S(=O)(=O)c3ccc(OCC(F)(F)F)cc3Cl)C[C@H]2C(=O)NC2(C#N)CC2)n(C2CCC2)n1 [Example 480, (2S,4R)-4-[2-Chloro-4-(2,2,2-trifluoro-ethoxy)-benzenesulfonyl]-1-(2-cyclobutyl-5-methyl-2H-pyrazol-3-yl)-pyrrolidine-2-carboxylic acid (1-cyano-cyclopropyl)-amide]
0.6 nM | 1270 nM | – | Cc1cc(N2C[C@H](S(=O)(=O)c3ccc(N4CCN(C(C)(C)C)CC4)cc3Cl)C[C@H]2C(=O)NC2(C#N)CC2)n(C2CCOCC2)n1 [Example 481, (2S,4R)-4-[4-(4-tert-Butyl-piperazin-1-yl)-2-chloro-benzenesulfonyl]-1-[5-methyl-2-(tetrahydro-pyran-4-yl)-2H-pyrazol-3-yl]-pyrrolidine-2-carboxylic acid (1-cyano-cyclopropyl)-amide]
0.765 nM | 2710 nM | – | Cc1cc(N2C[C@H](S(=O)(=O)c3ccc(OCC(F)(F)F)cc3Cl)C[C@H]2C(=O)NC2(C#N)CC2)n(C2CCOCC2)n1 [Example 482, (2S,4R)-4-[2-Chloro-4-(2,2,2-trifluoro-ethoxy)-benzenesulfonyl]-1-[5-methyl-2-(tetrahydro-pyran-4-yl)-2H-pyrazol-3-yl]-pyrrolidine-2-carboxylic acid (1-cyano-cyclopropyl)-amide]
1.34 nM | 521 nM | – | Cc1cc(N2C[C@H](S(=O)(=O)c3ccc(N4CC(F)(F)C4)cc3Cl)C[C@H]2C(=O)NC2(C#N)CC2)n(CCc2ccccc2)n1 [Example 483, (2S,4R)-4-[2-Chloro-4-(3,3-difluoro-azetidin-1-yl)-benzenesulfonyl]-1-(5-methyl-2-phenethyl-2H-pyrazol-3-yl)-pyrrolidine-2-carboxylic acid (1-cyano-cyclopropyl)-amide]
3.31 nM | 1550 nM | – | Cc1cc(N2C[C@H](S(=O)(=O)c3ccc(OCC(F)(F)F)cc3Cl)C[C@H]2C(=O)NC2(C#N)CC2)n(CCc2ccccc2)n1 [Example 484, (2S,4R)-4-[2-Chloro-4-(2,2,2-trifluoro-ethoxy)-benzenesulfonyl]-1-(5-methyl-2-phenethyl-2H-pyrazol-3-yl)-pyrrolidine-2-carboxylic acid (1-cyano-cyclopropyl)-amide]
